The source of these data is publication PMC6143478, “Lipophilic activated ester prodrug approach for drug delivery to the intestinal lymphatic system” (Journal of Controlled Release, 2018).

SMILES strings stand for the structures. In brackets after ≈: the same amount, converted by molar mass. Like-named read-outs stand apart in the source and are kept apart here.

Data set [1] in a line: Biodistribution to mesenteric lymph nodes (MLN) and lymph following oral administration in rats. To be noted: BEX analyte, dose equivalent to 10 mg/kg BEX, rat, in words. In kind it is in vivo. How it is done: (§1) The protocols for pharmacokinetic and biodistribution experiments in this study were reviewed and approved by the University of Nottingham Ethical Review Committee in accordance with the Animals [Scientific Procedures] Act 1986. Male Sprague Dawley rats (Charles River Laboratories, UK) weighing 350–380 g were used. The animals were housed in the Bio Support Unit, University of Nottingham. Continuous lymph collection was performed according to a protocol approved by the Institutional Animal Care and Use Committee at Rutgers, The State University of New Jersey. Male Sprague Dawley rats (Envigo, Inc., NJ, USA) weighing 300–350 g were used for the continuous lymph collection. Animals were allowed free access to food and water and were acclimatised for at least 6 days prior to any procedures at both institutions in a controlled-temperature environment with 12 h light/dark cycles.
Formulations were prepared as described in the above pharmacokinetic study and were delivered by an oral gavage. Animals were euthanised at pre-determined time points. Blood was collected from the posterior vena cava and lymph samples were taken from the mesenteric lymph duct. MLNs were dissected and collected as previously described. The MLNs were isolated from surrounding tissue with care not to compromise the integrity of the lymph nodes. The MLNs were homogenised (POLYTRON® PT 10–35 GT, Kinematica AG, Luzern, Switzerland) with 10 mg/mL NaF in water (1,2, w/v) on an ice bath prior to sample preparation for HPLC analysis.
(§2) A combination of protein precipitation and liquid-liquid extraction was applied to samples prior to HPLC injection. To 100 μL sample, 300 μL of acetonitrile was added for protein precipitation and then 300 μL of pH modifier was added when necessary (Supplementary Material Table S2). […] The organic layer was separated and evaporated under N2 gas. Reconstitution solvent (100 μL) was used as detailed in Supplementary Material Table S2 and 40 μL was injected into the HPLC-UV system. […] Therefore, storage and preparation of all samples were performed within the time frame and conditions of confirmed stability.
(§3) The HPLC-UV system consisting of a separation module (Waters Alliance 2695) equipped with a UV detector (Waters 996) was used for analysis. Samples in the autosampler were maintained at 4 °C and the column at 40 °C. The stationary and mobile phases were used as specified in Supplementary Material Table S2. BEX and its prodrugs were detected at 259 nm and RA and its prodrugs at 357 nm.

For data set [2], the system named is VAL cells. Put plainly: Cell growth inhibition MTT assay, VAL. In kind it is cell-based. The note with it: 72 h, RA 0.400 μM (0.625% × GI50 of RA). How it is done: (§4) DLBCL cell lines of DOHH2 and VAL were obtained from the Gene Regulation and RNA Biology group in University of Nottingham. Cell growth inhibition was assessed by MTT assay with a minor modification from previously reported methods [[25], [26], [27]]. Cells were seeded at a density of 2000 cells/well and allowed to adapt overnight. Test compounds were serial-diluted with dimethyl sulfoxide (DMSO) and spiked on the next day to yield 0.1% (v/v) DMSO. Control wells were treated with 0.1% DMSO vehicle alone. At the time of drug addition, separately prepared wells were processed for Tzero readings as previously described. The treated cells were incubated further for 72 h at 37 °C and processed for cell growth assessments.
(§5) Assessment of statistical significance of differences between two groups was conducted by means of two-tailed unpaired t-test. Statistical significance among three or more groups was assessed by means of a one-way ANOVA followed by Tukey's multiple comparisons test. Statistical significance was declared when a p-value was lower than 0.05. […] Pharmacokinetic parameters were calculated by non-compartmental analysis using Phoenix WinNonlin 6.3 software (Pharsight, Mountain View, CA, USA).
(§6) The anticancer effects of BEX and RA were assessed by MTT assay using DLBCL cell lines. The GI50 of each drug was firstly determined in each cell line. […]

The nature of data set [3]: Plasma pharmacokinetics following oral administration in rats. It is filed as in vivo, rat. To be noted: for AUC(0-inf) / AUC(0-t) / half-life / Cmax: male, Sprague Dawley, rat, plasma, po, 10 mg/kg, dose equivalent to 10 mg/kg BEX; for AUC(0-inf) / AUC(0-t) / half-life: BEX in plasma; for Cmax: Cmax of BEX in plasma, read-out: C0 or Cmax; for Foral: oral bioavailability of BEX, calculated on AUC0→t after i.v. BEX 2.5 mg/kg [33]. How it is done: as §1
Jugular vein cannulation surgery procedures were conducted under general anaesthesia for blood sampling. The animals were allowed two days to recover following surgery and were fasted up to 12 h prior to experiments with free access to drinking water. Formulations were prepared at concentrations equivalent to 2.5 mg/mL and 10 mg/mL of active drug for intravenous and oral administration, respectively. Solutions of the tested compounds in PEG400 were used as the dosing vehicle for intravenous administration. For oral administration, all prodrugs were administered as a solution in sesame oil to stimulate intestinal lymphatic transport. For oral administration of BEX and RA, oral gavage of sesame oil was administered prior to administration of BEX or RA solution in PEG400 due to low solubility of the two compounds in TG. In the lipid-free group BEX was administered orally formulated as a solution in PEG400. The formulations were administered by an oral gavage for oral administration or via the jugular vein cannula followed by 0.3 mL heparinised saline (50 IU/mL) for intravenous injection. Blood samples of 250 μL volume were collected from the cannula at pre-determined time points following administration. NaF (10 mg/mL) was used as an anticoagulant and inhibitor of esterase activity. Blood samples were centrifuged at 3000 g for 10 min to obtain plasma.
as §2, §3
Assessment of statistical significance of differences between two groups was conducted by means of two-tailed unpaired t-test. Statistical significance among three or more groups was assessed by means of a one-way ANOVA followed by Tukey's multiple comparisons test. Statistical significance was declared when a p-value was lower than 0.05. The analyses were performed on GraphPad Prism version 7.01 (GraphPad Software, Inc., La Jolla, CA, USA). The concentrations that inhibited cell growth by 50% (GI50) were also calculated using GraphPad Prism and isobole plots were presented following a previously reported method to assess synergy between BEX and RA [28]. […]

Data set [4] relates to DOHH2 cells. Kind of data set: Cell growth inhibition MTT assay, DOHH2. It is filed as cell-based. To be noted: 72 h, RA 0.425 μM (0.625% × GI50 of RA). How it is done: as §4, §5, §6
(In general: Tetrazolium assays rely on reduction of a dye to a coloured formazan, in cell work by metabolically active cells.)

The nature of data set [5]: TG solubility measurement in sesame oil. To be noted: oil or lipid, thermodynamic from solid, 37 °C. In kind it is physicochemical. How it is done: Compounds were dissolved in fresh aliquots of sesame oil in excessive amounts in glass vials (in triplicate) and stirred using a magnetic stirring bar at 37 °C for 72 h. The mixture was then filtered by centrifugation in a Costar Spin-X Centrifuge Tube (Fisher Scientific, Loughborough, UK) at 2400 g for 5 min. The filtrates were analysed for concentration of the tested compounds by means of HPLC.

Data set [6] concerns human chylomicrons (CM). Kind of data set: Ex vivo association with human plasma-derived chylomicrons. In kind it is in vitro ADME. The note with it: in words. The source says:
The protocol for preparation of human plasma-derived CM emulsion was approved by the Faculty of Medicine and Health Sciences Research Ethics Committee, Queens Medical Centre, Nottingham University Hospitals (BT12102015 CBS SoP). Healthy male volunteers of 19–40 years old and with body mass index of 18.5–25.0 were enrolled in the study after providing informed consent. The participants were excluded if any medication was used within one week prior to enrolment. On the morning of the study, participants received a high-fat meal (equivalent to a full English breakfast). Between 3 and 4 h following breakfast, 30 mL of blood was collected using heparinised tubes (Vacutainer® Blood Collection Tubes) and centrifuged (800 g, 10 min, 15 °C) to obtain plasma.
CM separation was performed as previously reported with minor modifications. Briefly, KBr (0.57 g) was mixed with 4 mL of plasma to yield density of 1.1 g/mL. PBS with densities of 1.006, 1.019, and 1.063 g/mL were prepared by adding appropriate amounts of KBr. These PBS of different densities were layered on top of the plasma to build density gradient layers in polyallomer ultracentrifuge tubes. The samples were then centrifuged at 268,350 g for 35 min at 15 °C using an ultracentrifuge (SORVALL® TH-641 Rotor, Thermo Fisher Scientific, UK). Following ultracentrifugation, approximately 1 mL of the upper layer containing CM was collected. TG concentration of CM emulsion was assessed using the TG enzymatic kit (Sigma Aldrich, Dorset, UK). TG concentration of the emulsion was adjusted to 100 mg/dL by diluting with PBS of 1.006 g/mL density. The CM emulsion was stored at 4 °C until the association assay (˂24 h).
The association of the compounds with artificial lipid particle emulsion and human CM was assessed using previously reported methodology with minor modifications. Briefly, 1 mL of artificial lipid particle or CM emulsions (TG concentration 100 mg/dL) was used for the association assay. The emulsion was spiked with stock solutions of tested compounds (in acetonitrile) to give a final concentration of 1.755 μM. The reaction mixtures were incubated at 37 °C for 1 h with magnetic stirring at 300 rpm. Following the incubation, density gradient ultracentrifugation was applied as described above to isolate the artificial lipid particles or CM associated with the tested compounds from the rest of the experimental medium. All experiments were conducted in quintuplicates or above.

By AUC(0-inf) is commonly meant the area under the concentration-time curve extrapolated to infinity. As a reminder, the AUC(0-t) is the area under the concentration-time curve up to a stated or last time point. The term half-life denotes how long it takes for the measured level to halve. Usually Cmax stands for the peak of the concentration-time curve. In general, solubility refers to how much of the substance goes into solution per volume.

Regarding `C=C(c1ccc(C(=O)O)cc1)c1cc2c(cc1C)C(C)(C)CCC2(C)C` [BEX, bexarotene], the “concentrations of BEX in intestinal lymphatics (MLNs, lymph) relative to plasma” value in data set [1] is reported as “lower than those in plasma”. In addition, the “cell growth inhibition by BEX in conjunction with RA” value in data set [2] is “significantly and synergistically inhibited”. Also, in data set [3] (p.o. (lipid-based)), the AUC(0-inf) was 6620 ± 1310 ng·h/mL, the AUC(0-t) is 5660 ± 1760 ng·h/mL, the half-life was 3.7 ± 1.2 h and the Cmax was found to be 1100 ± 432 ng/mL. For the same compound, the Foral in data set [3] (p.o. (lipid-based)) is reported as 30.6 ± 9.5%. For the same compound, in data set [3] (p.o. (lipid-free)), the AUC(0-t) was found to be 4910 ± 1790 ng·h/mL, the half-life is 3 ± 0.7 h, the Cmax turned out to be 899 ± 338 ng/mL and the Foral is reported as 26.5 ± 9.6%. The AUC(0-inf) in data set [3] (p.o. (lipid-free, PEG400)) is 5840 ± 2140 ng·h/mL. Further, the “cell growth inhibition by BEX in conjunction with RA” value in data set [4] is “significantly and synergistically inhibited”.

Consider `C=C(c1ccc(C(=O)OCC(=O)N(CC)CC)cc1)c1cc2c(cc1C)C(C)(C)CCC2(C)C` [prodrug 20], for which the solubility at 72 h in data set [5] came out at 2670 ± 60 µg/mL (≈ 5.78 mM). Moreover, the “difference in affinity for artificial emulsion versus natural human CM” value in data set [6] is on record as “significant differences”.
